Columns and labels:
Assay type in all cases: cell-based
[1] = test system: Escherichia coli 018; test: Colony coloration on supplemented Trypticase Soy medium with cellobiose; conditions: 37° C.
Procedure: (§1) Various concentrations of cellobiose (0-0.1-1-5-10 g/l) are added to Trypticase Soy medium (bioMérieux) supplemented with 5-bromo-6-chloro-3-indolyl-beta-galactoside at 50 mg/l and with 5-bromo-4-chloro-3-indolyl-beta-glucoside at 50 mg/l. These media are distributed in a proportion of 20 ml per Petri dish. Microorganisms derived from the applicant's collection were inoculated on these media by semi-quantitative isolation of 10 μl of a suspension at 0.5 McFarland, diluted to 1/20. The dishes were incubated at 37° C. for 48 hours. The colonies formed were examined visually after 24 and 48 hours of incubation. The coloration of these colonies was noted.

[2] = test system: Serratia marcescens 112; test: as above; conditions: 37° C.
Procedure: as §1

[3] = test system: Citrobacter freundii 022; test: as above; conditions: 37° C.
Procedure: as §1

[4] = test system: Escherichia coli 003; test: as above; conditions: 37° C.
Procedure: as §1

[5] = test system: Klebsiella pneumoniae 111; test: as above; conditions: 37° C.
Procedure: as §1

[6] = test system: Citrobacter freundii 104; test: as above; conditions: 37° C.
Procedure: as §1

[7] = test system: Enterococcus faecalis 117; test: as above; conditions: 37° C.
Procedure: as §1

[8] = test system: Citrobacter freundii 031; test: as above; conditions: 37° C.
Procedure: as §1

[9] = test system: Serratia marcescens 112; test: Colony coloration on CPS ID 3 medium with cellobiose; conditions: 37° C.
Procedure: (§2) Various concentrations of cellobiose (0-100-350-1000 mg/l) are added to the CPS ID 3 medium (bioMérieux). These media contain 6-chloro-3-indolyl-beta-glucuronide at 250 mg/l and 5-bromo-4-chloro-3-indolyl-beta-glucoside at 50 mg/l. These media are distributed in a proportion of 20 ml per Petri dish. Microorganisms derived from the applicant's collection were inoculated on these media by semi-quantitative isolation of 10 μl of a suspension at 0.5 McFarland, diluted to 1/20. The dishes were incubated at 37° C. for 48 hours. The colonies formed were examined visually after 24 and 48 hours of incubation. The coloration of these colonies was noted.

[10] = test system: Citrobacter freundii 022; test: as above; conditions: 37° C.
Procedure: as §2

[11] = test system: Escherichia coli 003; test: as above; conditions: 37° C.
Procedure: as §2

[12] = test system: Klebsiella pneumoniae 111; test: as above; conditions: 37° C.
Procedure: as §2

[13] = test system: Citrobacter freundii 104; test: as above; conditions: 37° C.
Procedure: as §2

[14] = test system: Escherichia coli 407; test: as above; conditions: 37° C.
Procedure: as §2

[15] = test system: Enterococcus faecalis 117; test: as above; conditions: 37° C.
Procedure: as §2

[16] = test system: Citrobacter freundii 031; test: as above; conditions: 37° C.
Procedure: as §2

[17] = test system: Citrobacter strains; test: Colony coloration on CPS ID 3 medium with cellobiose (text summary); conditions: in the presence of cellobiose
Procedure: as §2

[18] = test system: Citrobacter strains; test: Colony coloration on supplemented Trypticase Soy medium with cellobiose (text summary)
Procedure: as §1

colony coloration ([2]; cellobiose 0.1 g/l, 24 h): Green | colony coloration ([2]; cellobiose 0.1 g/l, 48 h): Blue | colony coloration ([2]; cellobiose 1 g/l, 24 h): Green | colony coloration ([2]; cellobiose 1 g/l, 48 h): Blue | colony coloration ([2]; cellobiose 5 g/l, 24 h): Green | colony coloration ([2]; cellobiose 5 g/l, 48 h): Blue | colony coloration ([2]; cellobiose 10 g/l, 24 h): Turquoise | colony coloration ([2]; cellobiose 10 g/l, 48 h): Blue | colony coloration ([3]; cellobiose 0.1 g/l, 24 h): Violet | colony coloration ([3]; cellobiose 0.1 g/l, 48 h): Blue | colony coloration ([3]; cellobiose 1 g/l, 24 h): Violet | colony coloration ([3]; cellobiose 1 g/l, 48 h): Blue | colony coloration ([3]; cellobiose 5 g/l, 24 h): Pink | colony coloration ([3]; cellobiose 5 g/l, 48 h): Blue | colony coloration ([3]; cellobiose 10 g/l, 24 h): Mauve | colony coloration ([3]; cellobiose 10 g/l, 48 h): Mauve | colony coloration ([5]; cellobiose 0.1 g/l, 24 h): Green | colony coloration ([5]; cellobiose 0.1 g/l, 48 h): Blue | colony coloration ([5]; cellobiose 1 g/l, 24 h): Green | colony coloration ([5]; cellobiose 1 g/l, 48 h): Blue | colony coloration ([5]; cellobiose 5 g/l, 24 h): Turquoise | colony coloration ([5]; cellobiose 5 g/l, 48 h): Blue | colony coloration ([5]; cellobiose 10 g/l, 24 h): Turquoise | colony coloration ([5]; cellobiose 10 g/l, 48 h): Blue | colony coloration ([6]; cellobiose 0.1 g/l, 24 h): Violet | colony coloration ([6]; cellobiose 0.1 g/l, 48 h): Green | colony coloration ([6]; cellobiose 1 g/l, 24 h): Violet | colony coloration ([6]; cellobiose 1 g/l, 48 h): Green | colony coloration ([6]; cellobiose 5 g/l, 24 h): Mauve | colony coloration ([6]; cellobiose 5 g/l, 48 h): Green | colony coloration ([6]; cellobiose 10 g/l, 24 h): Mauve | colony coloration ([6]; cellobiose 10 g/l, 48 h): Mauve | colony coloration ([7]; cellobiose 0.1 g/l, 24 h): Turquoise | colony coloration ([7]; cellobiose 0.1 g/l, 48 h): Turquoise | colony coloration ([7]; cellobiose 1 g/l, 24 h): Turquoise | colony coloration ([7]; cellobiose 1 g/l, 48 h): Turquoise | colony coloration ([7]; cellobiose 5 g/l, 24 h): Turquoise | colony coloration ([7]; cellobiose 5 g/l, 48 h): Turquoise | colony coloration ([7]; cellobiose 10 g/l, 24 h): Turquoise | colony coloration ([7]; cellobiose 10 g/l, 48 h): Turquoise | colony coloration ([8]; cellobiose 0.1 g/l, 24 h): Violet | colony coloration ([8]; cellobiose 0.1 g/l, 48 h): Green | colony coloration ([8]; cellobiose 1 g/l, 24 h): Mauve | colony coloration ([8]; cellobiose 1 g/l, 48 h): Green | colony coloration ([8]; cellobiose 5 g/l, 24 h): Mauve | colony coloration ([8]; cellobiose 5 g/l, 48 h): Green | colony coloration ([8]; cellobiose 10 g/l, 24 h): Mauve | colony coloration ([8]; cellobiose 10 g/l, 48 h): Mauve | coloration of the colonies (beta-glucosidase activity expressed) [17]: green to violet coloration | coloration of the colonies (beta-glucosidase activity expressed) ([18]; in the presence of cellobiose, supplemented Trypticase Soy medium): green to violet coloration
SMILES: O=C[C@H](O)[C@@H](O)[C@H](O[C@@H]1O[C@H](CO)[C@@H](O)[C@H](O)[C@H]1O)[C@H](O)CO [Cellobiose, cellobiose]
colony coloration ([1]; cellobiose 0.1 g/l, 24 h): Mauve | colony coloration ([1]; cellobiose 0.1 g/l, 48 h): Mauve | colony coloration ([1]; cellobiose 1 g/l, 24 h): Mauve | colony coloration ([1]; cellobiose 1 g/l, 48 h): Mauve | colony coloration ([1]; cellobiose 5 g/l, 24 h): Mauve | colony coloration ([1]; cellobiose 5 g/l, 48 h): Mauve | colony coloration ([1]; cellobiose 10 g/l, 24 h): Mauve | colony coloration ([1]; cellobiose 10 g/l, 48 h): Mauve | colony coloration ([4]; cellobiose 0.1 g/l, 24 h): Mauve | colony coloration ([4]; cellobiose 0.1 g/l, 48 h): Mauve | colony coloration ([4]; cellobiose 1 g/l, 24 h): Mauve | colony coloration ([4]; cellobiose 1 g/l, 48 h): Mauve | colony coloration ([4]; cellobiose 5 g/l, 24 h): Mauve | colony coloration ([4]; cellobiose 5 g/l, 48 h): Mauve | colony coloration ([4]; cellobiose 10 g/l, 24 h): Mauve | colony coloration ([4]; cellobiose 10 g/l, 48 h): Mauve | colony coloration ([9]; cellobiose 100 mg/l, 24 h): Turquoise | colony coloration ([9]; cellobiose 100 mg/l, 48 h): Turquoise | colony coloration ([9]; cellobiose 350 mg/l, 24 h): Turquoise | colony coloration ([9]; cellobiose 350 mg/l, 48 h): Turquoise | colony coloration ([9]; cellobiose 1000 mg/l, 24 h): Turquoise | colony coloration ([9]; cellobiose 1000 mg/l, 48 h): Turquoise | colony coloration ([10]; cellobiose 100 mg/l, 24 h): Violet | colony coloration ([10]; cellobiose 100 mg/l, 48 h): Violet | colony coloration ([10]; cellobiose 350 mg/l, 24 h): Violet | colony coloration ([10]; cellobiose 350 mg/l, 48 h): Violet | colony coloration ([10]; cellobiose 1000 mg/l, 24 h): Violet | colony coloration ([10]; cellobiose 1000 mg/l, 48 h): Violet | colony coloration ([11]; cellobiose 100 mg/l, 24 h): Pink | colony coloration ([11]; cellobiose 100 mg/l, 48 h): Red | colony coloration ([11]; cellobiose 350 mg/l, 24 h): Pink | colony coloration ([11]; cellobiose 350 mg/l, 48 h): Red | colony coloration ([11]; cellobiose 1000 mg/l, 24 h): Pink | colony coloration ([11]; cellobiose 1000 mg/l, 48 h): Red | colony coloration ([12]; cellobiose 100 mg/l, 24 h): Turquoise | colony coloration ([12]; cellobiose 100 mg/l, 48 h): Turquoise | colony coloration ([12]; cellobiose 350 mg/l, 24 h): Turquoise | colony coloration ([12]; cellobiose 350 mg/l, 48 h): Turquoise | colony coloration ([12]; cellobiose 1000 mg/l, 24 h): Turquoise | colony coloration ([12]; cellobiose 1000 mg/l, 48 h): Turquoise | colony coloration ([13]; cellobiose 100 mg/l, 24 h): Green | colony coloration ([13]; cellobiose 100 mg/l, 48 h): Green | colony coloration ([13]; cellobiose 350 mg/l, 24 h): Green | colony coloration ([13]; cellobiose 350 mg/l, 48 h): Green | colony coloration ([13]; cellobiose 1000 mg/l, 24 h): Green | colony coloration ([13]; cellobiose 1000 mg/l, 48 h): Green | colony coloration ([14]; cellobiose 100 mg/l, 24 h): Pink | colony coloration ([14]; cellobiose 100 mg/l, 48 h): Red | colony coloration ([14]; cellobiose 350 mg/l, 24 h): Pink | colony coloration ([14]; cellobiose 350 mg/l, 48 h): Red | colony coloration ([14]; cellobiose 1000 mg/l, 24 h): Pink | colony coloration ([14]; cellobiose 1000 mg/l, 48 h): Red | colony coloration ([15]; cellobiose 100 mg/l, 24 h): Turquoise | colony coloration ([15]; cellobiose 100 mg/l, 48 h): Turquoise | colony coloration ([15]; cellobiose 350 mg/l, 24 h): Turquoise | colony coloration ([15]; cellobiose 350 mg/l, 48 h): Turquoise | colony coloration ([15]; cellobiose 1000 mg/l, 24 h): Turquoise | colony coloration ([15]; cellobiose 1000 mg/l, 48 h): Turquoise | colony coloration ([16]; cellobiose 100 mg/l, 24 h): Green | colony coloration ([16]; cellobiose 100 mg/l, 48 h): Green | colony coloration ([16]; cellobiose 350 mg/l, 24 h): Green | colony coloration ([16]; cellobiose 350 mg/l, 48 h): Green | colony coloration ([16]; cellobiose 1000 mg/l, 24 h): Colorless | colony coloration ([16]; cellobiose 1000 mg/l, 48 h): Green | differentiation of C. freundii from E. coli ([18]; cellobiose concentrations above 5 g/l): less marked

Source: patent US8216802B2, “Detection medium for gram negative bacteria” (Biomerieux, priority 2007, dated 2012)
